Experiment [1] concerns the target T1, Prostaglandin G/H synthase 1 (Ovis aries, UniProt P05979).
T1 sequence (P05979 whole entry): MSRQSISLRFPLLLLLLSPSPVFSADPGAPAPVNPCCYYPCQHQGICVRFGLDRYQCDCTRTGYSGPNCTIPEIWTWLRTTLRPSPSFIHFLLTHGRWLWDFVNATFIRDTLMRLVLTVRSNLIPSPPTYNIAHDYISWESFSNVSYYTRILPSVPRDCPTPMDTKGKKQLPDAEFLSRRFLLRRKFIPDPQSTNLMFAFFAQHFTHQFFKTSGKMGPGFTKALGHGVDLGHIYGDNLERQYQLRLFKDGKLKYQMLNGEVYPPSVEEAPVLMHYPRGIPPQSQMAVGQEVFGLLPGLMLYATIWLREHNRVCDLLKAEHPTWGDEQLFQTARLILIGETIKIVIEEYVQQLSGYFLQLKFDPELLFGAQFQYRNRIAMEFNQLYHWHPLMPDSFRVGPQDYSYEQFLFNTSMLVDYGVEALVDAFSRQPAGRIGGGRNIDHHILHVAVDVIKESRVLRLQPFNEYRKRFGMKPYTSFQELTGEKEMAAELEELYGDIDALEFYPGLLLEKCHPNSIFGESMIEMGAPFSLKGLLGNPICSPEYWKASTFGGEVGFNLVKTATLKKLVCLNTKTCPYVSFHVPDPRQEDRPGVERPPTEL
As to the kind of experiment: COX Enzyme Inhibition Assay (Table 1).

The target of experiment [2] is T2, Prostaglandin G/H synthase 2 (Mus musculus, UniProt Q05769).
T2 sequence (Q05769 whole entry): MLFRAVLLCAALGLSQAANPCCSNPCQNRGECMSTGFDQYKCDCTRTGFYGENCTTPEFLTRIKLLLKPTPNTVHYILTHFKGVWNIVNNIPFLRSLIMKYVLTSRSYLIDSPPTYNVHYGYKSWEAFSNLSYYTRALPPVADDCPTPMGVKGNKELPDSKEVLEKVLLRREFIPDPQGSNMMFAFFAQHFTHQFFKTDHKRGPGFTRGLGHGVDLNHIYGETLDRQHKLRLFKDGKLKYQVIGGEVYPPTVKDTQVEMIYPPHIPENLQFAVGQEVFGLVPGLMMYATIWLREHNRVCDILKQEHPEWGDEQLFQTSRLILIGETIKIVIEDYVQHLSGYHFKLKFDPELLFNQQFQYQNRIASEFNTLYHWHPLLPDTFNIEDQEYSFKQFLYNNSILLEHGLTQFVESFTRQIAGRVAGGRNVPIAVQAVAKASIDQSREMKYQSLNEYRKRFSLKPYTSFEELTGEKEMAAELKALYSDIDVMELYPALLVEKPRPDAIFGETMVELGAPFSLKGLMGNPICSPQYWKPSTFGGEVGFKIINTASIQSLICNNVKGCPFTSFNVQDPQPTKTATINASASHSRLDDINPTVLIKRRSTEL
As to the kind of experiment: COX Enzyme Inhibition Assay (Table 1).

As to `COc1ccc2c(c1)c(CC(=O)Nc1ccc(CNC(=O)CCC(=O)O[C@@H](C(=O)O[C@H]3C[C@@]4(O)[C@@H](OC(=O)c5ccccc5)[C@@H]5[C@]6(OC(C)=O)CO[C@@H]6C[C@H](O)[C@@]5(C)C(=O)[C@H](OC(C)=O)C(=C3C)C4(C)C)[C@@H](NC(=O)c3ccccc3)c3ccccc3)cc1)c(C)n2C(=O)c1ccc(Cl)cc1` [Cytotoxic conjugates, 4], the half-inhibitory concentration (IC50) – broadly, the concentration that inhibits the measured activity by half – in experiment [1] is greater than 25 µM.

As to `COc1ccc2c(c1)c(CC(=O)NCCNC(=O)CCC(=O)O[C@@H]1c3cc4c(cc3[C@H](c3cc(OC)c(OC)c(OC)c3)[C@@H]3C(=O)OCC13)OCO4)c(C)n2C(=O)c1ccc(Cl)cc1` (stereo partly specified) [Cytotoxic conjugates, 11], the IC50 in experiment [2] is 0.47 µM; in experiment [1] it was greater than 25 µM.

`COc1ccc2c(c1)c(CC(=O)NCc1ccc(CNC(=O)CCC(=O)O[C@@H]3c4cc5c(cc4[C@H](c4cc(OC)c(OC)c(OC)c4)[C@@H]4C(=O)OCC34)OCO5)cc1)c(C)n2C(=O)c1ccc(Cl)cc1` (stereo partly specified) [Cytotoxic conjugates, 15] registered an IC50 in experiment [1] greater than 25 µM.

`COc1ccc2c(c1)c(CC(=O)NCCCCOC(=O)CCC(=O)O[C@@H](C(=O)O[C@H]1C[C@@]3(O)[C@@H](OC(=O)c4ccccc4)[C@@H]4[C@]5(OC(C)=O)CO[C@@H]5C[C@H](O)[C@@]4(C)C(=O)[C@H](OC(C)=O)C(=C1C)C3(C)C)[C@@H](NC(=O)c1ccccc1)c1ccccc1)c(C)n2C(=O)c1ccc(Cl)cc1` [Cytotoxic conjugates, 3] returned an IC50 in experiment [1] greater than 25 µM.

For `COc1cc([C@@H]2c3cc4c(cc3[C@H](O)[C@H]3COC(=O)[C@H]23)OCO4)cc(OC)c1OC` [podophyllotoxin], the IC50 in experiment [2] and in experiment [1] was greater than 25 µM in each case.

As for `COc1ccc2c(c1)c(CC(=O)NCCCCNC(=O)CCC(=O)OC1CCCCC1)c(C)n2C(=O)c1ccc(Cl)cc1` [Cytotoxic conjugates, 16], the IC50 in experiment [1] is greater than 25 µM.

Consider `COc1ccc2c(c1)c(CC(=O)NCCNC(=O)/C=C(C)/C=C/C=C(C)\C=C\C1=C(C)CCCC1(C)C)c(C)n2C(=O)c1ccc(Cl)cc1` [Cytotoxic conjugates, 7], for which the IC50 in experiment [2] is 0.6 µM; in experiment [1], greater than 25 µM.

On to `CCC1(O)C(=O)OCc2c1cc1n(c2=O)Cc2cc3cc(OC(=O)CCC(=O)OCCNC(=O)Cc4c(C)n(C(=O)c5ccc(Cl)cc5)c5ccc(OC)cc45)ccc3nc2-1` (stereo unspecified) [Cytotoxic conjugates, 10], for which the IC50 in experiment [2] and in experiment [1] was greater than 25 µM throughout.

Regarding `COc1ccc2c(c1)c(CCNC(=O)CCC(=O)Nc1ccc(S(=O)(=O)Nc3nccs3)cc1)c(C)n2Cc1ccc(Br)cc1` [Cytotoxic conjugates, 9], the IC50 in experiment [2] and in experiment [1] was greater than 25 µM in each case.

In the case of `COc1ccc2c(c1)c(CC(=O)O[C@@H](C(=O)O[C@H]1C[C@@]3(O)[C@@H](OC(=O)c4ccccc4)[C@@H]4[C@]5(OC(C)=O)CO[C@@H]5C[C@H](O)[C@@]4(C)C(=O)[C@H](OC(C)=O)C(=C1C)C3(C)C)[C@@H](NC(=O)c1ccccc1)c1ccccc1)c(C)n2C(=O)c1ccc(Cl)cc1` [Cytotoxic conjugates, 1], the IC50 in experiment [2] and in experiment [1] was greater than 25 µM throughout.

Turning to `COc1ccc2c(c1)c(CC(=O)NCCOC(=O)\C=C(C)/C=C/C=C(C)/C=C/C1=C(C)CCCC1(C)C)c(C)n2C(=O)c1ccc(Cl)cc1` [Cytotoxic conjugates, 5], the IC50 in experiment [1] was greater than 25 µM.

For the compound `COc1ccc2c(c1)c(CC(=O)NCCNC(=O)CCC(=O)Nc1ccc(S(=O)(=O)Nc3nccs3)cc1)c(C)n2C(=O)c1ccc(Cl)cc1` [Cytotoxic conjugates, 8], in experiment [1], the IC50 is greater than 25 µM.

With `COc1ccc2c(c1)c(CC(=O)NCCCCOC(=O)CCC(=O)O[C@@H]1c3cc4c(cc3[C@H](c3cc(OC)c(OC)c(OC)c3)[C@@H]3C(=O)OCC13)OCO4)c(C)n2C(=O)c1ccc(Cl)cc1` (stereo partly specified) [Cytotoxic conjugates, 14], the IC50 in experiment [1] was greater than 25 µM.

With `COc1ccc2c(c1)c(CC(=O)NCCNC(=O)/C=C(C)/C=C/C=C(C)/C=C/C1=C(C)CCCC1(C)C)c(C)n2C(=O)c1ccc(Cl)cc1` [Cytotoxic conjugates, 6], the half-inhibitory concentration (IC50) in experiment [2] is 0.1 µM; in experiment [1] it was greater than 25 µM.
